Data reported in publication PMC12523804, “Evaluation of molecular mechanisms of (Z)-3-(pentadec-10′-enyl)-catechol (litreol) and synthetic derivatives as inhibitors of human leukotriene biosynthesis” (Redox Biology, 2025).

Legend:
[1] = target: T1, 5-LO (Homo sapiens, UniProt P09917); assay: 5-LO product formation in intact human PMNL (neutrophils); type: cell-based; design: endogenous in cells; host or cells: human PMNL from peripheral blood of healthy volunteers; settings: for IC50: intact human PMNL
T1 sequence (P09917 1-674): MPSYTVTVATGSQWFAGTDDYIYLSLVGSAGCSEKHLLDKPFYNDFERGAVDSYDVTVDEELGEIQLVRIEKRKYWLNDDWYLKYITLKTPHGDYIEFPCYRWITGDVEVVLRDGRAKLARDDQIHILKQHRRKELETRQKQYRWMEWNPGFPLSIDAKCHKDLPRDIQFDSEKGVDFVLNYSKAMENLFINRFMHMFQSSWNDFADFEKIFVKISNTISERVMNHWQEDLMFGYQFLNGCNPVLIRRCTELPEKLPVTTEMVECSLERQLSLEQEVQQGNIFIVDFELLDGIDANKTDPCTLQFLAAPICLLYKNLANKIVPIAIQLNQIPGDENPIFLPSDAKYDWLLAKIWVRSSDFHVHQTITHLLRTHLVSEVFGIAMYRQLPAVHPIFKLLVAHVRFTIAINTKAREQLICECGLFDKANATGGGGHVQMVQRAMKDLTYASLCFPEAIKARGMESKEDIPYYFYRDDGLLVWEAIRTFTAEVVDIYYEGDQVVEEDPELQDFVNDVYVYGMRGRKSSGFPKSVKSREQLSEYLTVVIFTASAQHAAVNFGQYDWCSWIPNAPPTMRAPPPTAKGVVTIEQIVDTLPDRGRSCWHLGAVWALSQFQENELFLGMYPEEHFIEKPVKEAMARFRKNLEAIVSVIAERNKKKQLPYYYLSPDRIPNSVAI
Experimental: PMNL and monocytes were isolated from human peripheral blood of adult healthy volunteers, with consent, obtained from the Institute of Transfusion Medi-cine, University Hospital Jena (Germany). PMNL were immediately isolated by dextran sedi-mentation, centrifugation on Nycoprep cushions, and hypotonic lysis of erythrocytes, as described. PMNL viability was analyzed by trypan blue exclusion with a Vi-cell counter (Beckmann Coulter GmbH, Krefeld). HEK-293 cells were grown in DMEM/High Glucose (4.5 g/L) medium supplemented with heat-inactivated fetal calf serum (FCS, 10 %, vv_1), 100 U/mLpenicillin, and 100 µg/mL streptomycin at 37 °C in a 5 % CO2 incubator. HEK-293 cells were stably transfected with 5-LO and FLAP as validated experimental cell-based model for studying the regulation of 5-LO [28]. None of the cell lines used in this study were authenticated.
Freshly isolated human PMNL (5 × 10^6) were resuspended in 1 mL PBS buffer containing 1 mg/mL glucose (PG buffer). […] After 10 min at 37 °C, the reaction was stopped with 1 mL of methanol for 10 min on ice and LO products formed and released in the supernatants were extracted and analyzed by HPLC. In detail, after centrifugation (800g, 10 min, room temperature) the samples were applied to C-18 solid-phase extraction columns (100 mg; IST, Mid Glamorgan, United Kingdom), preconditioned with 1 mL methanol and 1 mL water. The columns were washed with 1 mL water and 1 mL water/methanol (75/25, vol/vol) and 5-LO metabolites were eluted with 300 μL methanol. The extract was then diluted with 120 μL water, and 100 μL diluted extract were analyzed by HPLC using a C-18 Radial-Pak column (Waters) eluted with methanol/water/acetic acid 75/25/0.1 (vol/vol/vol) at a flow rate of 1.2 mL/min. Amounts of different metabolites were determined by peak area integration. 5-LO products analyzed include LTB4 and its two all-trans isomers, 5(S)-hydroxy-6-trans-8,11,14-cis-eicosatetraenoic acid (5-HETE), and 5(S)-hydroper-oxy-6-trans-8,11,14-cis-eicosatetraenoic acid (5-HpETE). 5-HETE and 5-HpETE coelute as one major peak, and the integration of this peak represented both eicosanoids.

[2] = tested on: 5-LO; design: method as in PMID 32220788; settings: read-out: IC50 against 5-LO; cited from earlier work
[3] = tested on: intracellular Ca2+; assay: Intracellular Ca2+ measurements in PMNL (Fura-2); type: cell-based, human; settings: 1 μM compound
Experimental: PMNL (10^7 x ml PG buffer) were pre-stained with Fura-2/AM (2 μM) for 45 min at 37 °C in the dark. After two washing steps, cells were resuspended in PG buffer containing 0.1 % BSA at a density of 5 × 10^6/mL. 100 μL of the cell suspension was transferred into a 96-well plate and pre-incubated for 10 min at 37 °C with compound or vehicle (1 % DMSO), and 2 min prior stimulation 1 mM CaCl2 was added, following addition of 0.1 μM fMLP or 2 μM ionomycin as a positive control for Ca^2+ influx. The signal was monitored in a thermally (37 °C) controlled NOVOstar microplate reader (BMG Labtechnologies GmbH, Offenburg, Germany) (emission at 510 nm, excitation at 340 nm (Ca^2+-bound Fura-2) and 380 nm (free Fura-2). After cell lysis with Triton X-100 the maximal fluorescence signals were monitored and after chelating Ca^2+ with 10 mM EDTA the minimal fluorescence signals. The concentration of Ca^2+ was calculated from the ratio of the signals at 340 and 380 nm according to Grynkiewicz G et al..

[4] = target: T2, 5-LO/FLAP (Homo sapiens, UniProt P09917); assay: Subcellular localization of 5-LO and FLAP by immunofluorescence microscopy in HEK293 cells; type: cell-based; settings: HEK293 cells expressing 5-LO and FLAP, 3 μM (Fig. 4D) or 10 μM (method)
T2 construct: expressed in transfected cells; host or cells: HEK-293, stably transfected
T2 sequence (P09917 1-674): T1 sequence (P09917 1-674)
Experimental: Subcellular localization of 5-LO and FLAP was analyzed by immunofluorescence (IF) microscopy. In brief, HEK-293 cells expressing 5-LO/FLAP were seeded onto acid-washed (50 % sulfuric acid) and poly-L-lysine (0.01 %)-coated glass coverslips and cultured for 48 h at 37 °C until ∼60 % confluency. Cells were pre-incubated with 10 μM of compounds or vehicle (0.1 % DMSO) for 10 min before stimulation with 2.5 μM A23187 for 20 min at 37 °C. After fixation with 4 % paraformaldehyde solution, followed by permeabilization by using 50 mM ammonium chloride and acetone (3 min, 4 °C), cells were incubated with 10 % non-immune goat serum blocking solution for 1 h. Then, cells were incubated over night with mouse monoclonal anti-5-LO antibody (1:100) and rabbit polyclonal anti-FLAP antibody ([…]). The coverslips were intensively washed with PBS before staining with the fluorophore-labeled secondary antibodies Alexa Fluor 488 goat anti-rabbit (1:500) and Alexa Fluor 555 goat anti-mouse (1:500) for 20 min in the dark. The coverslips were mounted on glass slides with Mowiol containing 2.5 % n-propyl gallate and 4,6-diamidin-2-phenylindol (DAPI; Invitrogen, Carlsbad, CA), a staining for nuclear DNA. Samples were analyzed by a Zeiss Axio-vert 200 M microscope, and a Plan Neofluar _ 100/1.30 Oil (DIC III) objective (Carl Zeiss, Jena, Germany). […]

[5] = Cell-based A23187 (IC50 of 5-LO product formation), […] A23187, 10 min
[6] = Cell-based A23187 + AA (IC50 of 5-LO product formation), […] A23187 plus 20 μM AA, 10 min

SMILES	IC50 [1, 5] [µM]	IC50 [1, 6] [µM]	fold greater potency compared to hydrogenated analogue CS ([1]; comparison of IC50 values (neutrophils and cell-free))	IC50 [2] [µM]	intracellular Ca2+ concentrations [3]	A23187-induced 5-LO translocation / colocalization with FLAP [4]
CCCC/C=C\CCCCCCCCCc1cccc(O)c1O [CI, (Z)-3-(pentadec-10′-enyl)-catechol]	0.26	0.09	2.5- to 3 fold	2.09	Neither CS nor CI caused significant changes	able to block
CCCCCCCCCCCCCCCc1cccc(O)c1O [CS, 3-n-pentadecylcatechol]	0.8 ± 0.5	0.07	–	2.74	Neither CS nor CI caused significant changes	not successful
